The source of these data is patent US20260184706A1, “PHENYLSULFONAMIDE DERIVATIVES, PREPARATION METHOD THEREFOR, AND PHARMACEUTICAL COMPOSITION FOR PREVENTION OR TREATMENT OF CANCER CONTAINING SAME AS ACTIVE INGREDIENT” (Korea Research Institute of Chemical Technology, priority 2022, published 2026).

Molecules are shown by their SMILES. Where only a bound is given, the exact number is not on record here.

Experiment [1] has as its target recombinant human GCN2 protein (Homo sapiens, UniProt Q9P2K8). The experiment can be described thus: General control nonderepressible 2 (GCN2) inhibitory capacity, 33P-ATP filter assay. Format: biochemical. The conditions noted are these: recombinant human GCN2, 70 uM [gamma-33P-ATP], 40 minutes, room temperature.
A further experiment concerns ATF4. The experiment can be described thus: Inhibition of ATF4, downstream factor of ISR, in HT-1080 cells, Western blot (FIG. 1). Format: cell-based, human. The conditions noted are these: amino acid deficiency, compound 50 nM, 24 hours. On the procedure:
(§1) <Experimental Example 5> Evaluation of Inhibitory Efficacy of ISR-Related Kinase GCN2 Under Amino Acid Deficiency Condition Using Western Blot
(§2) HT-1080 cells, a human fibrosarcoma cell line, were cultured in RPMI-1640 medium supplemented with 10% FBS, penicillin (penicillin; 100 IU/ml), and streptomycin (streptomycin; 100 μg/ml). Cells (1×10^6 cells/ml) were seeded onto 100 mm plates (polypropylene tissue culture plate) and incubated for 24 hours in a 37° C., 5% CO2 incubator before being used for experiments.
(§3) The following method was used to achieve amino acid deficiency conditions in cells. After 24 hours of cell culture, the cells were cultured in amino acids and L-glutamine-free RPMI-1640 medium supplemented with 10% FBS, penicillin (100 IU/ml), and streptomycin (100 μg/ml). After 24 hours of cell culture in RPMI-1640 without amino acids and L-glutamine, the compound prepared at a concentration of 50 nM was dispensed onto each plate and cultured for 24 hours in a 37° C., 5% CO2 incubator.
(§4) In order to measure the signal transduction inhibitory efficacy of GCN among the ISR-related kinases according to the present invention, the following experiment was performed using SDS-PAGE. The fibrosarcoma cell line HT-1080 cells cultured on plates as described above were washed with PBS after removing the culture medium. After removing PBS, the cells were lysed by adding a radio-immunoprecipitation assay buffer (RIPA buffer) containing 50 mM Tris (pH 7.4), 150 mM NaCl, 1% NP-40, 0.5% sodium deoxycholate, 2 mM sodium fluoride, 2 mM EDTA, 0.1% SDS, and a protease/phosphatase inhibitor cocktail to the plate. After centrifugation at 4° C., 13,000×g for 15 minutes, the protein in the upper layer was collected, and the protein concentration was measured at 562 nm using BCA (bicinchoninc acid) reagent, and the amount of protein in all samples was prepared at 20-50 μg.
(§5) After making the total volume the same using the sample buffer and RIPA buffer, it was heated at 97° C. for 5 minutes. Then, electrophoresis was performed on 8% or 12% SDS-PAGE at 80 V for 30 minutes and at 160 V for 1 hour and 30 minutes. After electrophoresis, the SDS-PAGE gel was transferred to an NC membrane (nitrocellulose membrane) at 90 V for 2 hours. The NC membrane was placed in TBST (tris buffer saline tween-20; 20 mM tris, 137 mM sodium chloride, 0.1% tween-20, pH 8.0) containing 5% non-fat skim milk, placed on a shaker, and reacted at room temperature for 1 hour.
(§6) Each primary antibody was diluted in TBST containing 5% non-fat skim milk, poured onto the NC membrane, and reacted at 4° C. for 24 hours. The membrane was washed three times for 10 minutes each with TBST. The secondary antibodies (anti-rabbit IgG and anti-mouse IgG labeled with horseradish peroxidase (HRP)) were diluted in TBST containing 5% non-fat skim milk and reacted with the membrane at room temperature for 1 hour. Upon completion of the reaction, the membrane was washed three times with TBST for 10 minutes each. Protein expression bands were detected by a chemiluminescence image analyzer (Image Quant LAS 500) after the ECL solution was reacted with the NC membrane.
FIG. 1 is a set of photographs confirming the mechanism proteins that react upon ISR activation, wherein the numbers correspond to example numbers of the present invention. […] They are also known to have an effect on increasing the expression of CHOP (GADD153), the most downstream factor of the mechanism. […] Thus, in addition to the activation of ISR by amino acid deficiency, a significant effect can be expected on the mechanism of inhibition of the activity of PERK, an ISR-related kinase, due to endoplasmic reticulum stress response.

Another experiment has as its target T1, phosphorylated GCN2 (Homo sapiens, UniProt Q9P2K8).
T1 construct: endogenous in cells; host or cells: HT-1080
The experiment can be described thus: Inhibition of phosphorylated GCN2 under amino acid deficiency in HT-1080 cells, Western blot. Format: cell-based. The following applies: compound 50 nM, 24 hours; for Phospho-GCN2 inhibition: symbols ◯ / X not defined. On the procedure:
as §1, §2, §3, §4, §5, §6
GCN2, a key kinase of the integrated stress response (ISR), is phosphorylated in response to amino acid deficiency.

For experiment [2], the target named is T2, recombinant human PERK protein (Homo sapiens, UniProt Q9NZJ5).
T2 sequence (Q9NZJ5 30-1116): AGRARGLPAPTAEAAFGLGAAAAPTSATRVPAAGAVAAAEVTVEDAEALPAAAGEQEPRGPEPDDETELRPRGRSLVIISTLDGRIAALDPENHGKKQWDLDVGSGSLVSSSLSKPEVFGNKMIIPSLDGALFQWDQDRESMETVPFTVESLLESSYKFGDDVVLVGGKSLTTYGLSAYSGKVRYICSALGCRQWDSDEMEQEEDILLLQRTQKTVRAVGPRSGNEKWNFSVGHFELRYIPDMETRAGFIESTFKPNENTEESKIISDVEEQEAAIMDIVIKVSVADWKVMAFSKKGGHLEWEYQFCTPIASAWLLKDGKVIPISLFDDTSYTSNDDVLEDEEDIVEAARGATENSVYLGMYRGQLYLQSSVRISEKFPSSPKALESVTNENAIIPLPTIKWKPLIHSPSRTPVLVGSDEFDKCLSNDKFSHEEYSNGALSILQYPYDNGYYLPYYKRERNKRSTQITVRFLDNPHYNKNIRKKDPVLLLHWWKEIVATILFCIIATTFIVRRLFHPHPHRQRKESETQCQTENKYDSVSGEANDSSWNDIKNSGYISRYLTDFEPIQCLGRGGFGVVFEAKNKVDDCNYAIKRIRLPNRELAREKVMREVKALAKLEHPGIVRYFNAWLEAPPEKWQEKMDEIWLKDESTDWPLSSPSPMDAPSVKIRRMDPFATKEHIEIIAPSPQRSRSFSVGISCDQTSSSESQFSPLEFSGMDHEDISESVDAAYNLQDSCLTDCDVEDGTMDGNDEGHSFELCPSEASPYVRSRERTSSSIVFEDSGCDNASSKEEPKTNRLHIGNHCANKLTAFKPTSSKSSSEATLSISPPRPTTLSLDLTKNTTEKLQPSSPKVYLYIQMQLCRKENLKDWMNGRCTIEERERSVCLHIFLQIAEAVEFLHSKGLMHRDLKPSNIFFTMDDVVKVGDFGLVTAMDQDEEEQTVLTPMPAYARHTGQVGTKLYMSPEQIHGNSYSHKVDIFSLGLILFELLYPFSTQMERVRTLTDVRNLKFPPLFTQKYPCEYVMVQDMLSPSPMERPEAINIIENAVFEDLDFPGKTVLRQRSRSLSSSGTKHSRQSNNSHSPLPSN
The experiment can be described thus: PKR-like endoplasmic reticulum kinase (PERK) inhibitory capacity, 33P-ATP filter assay. In kind it is biochemical. The conditions noted are these: 15 uM [gamma-33P-ATP], 40 minutes, room temperature. On the procedure:
<Experimental Example 1> Evaluation of PKR-Like Endoplasmic Reticulum Kinase (PERK) Inhibitory Capacity
(§7) A recombinant human PERK protein was mixed with the compound in a reaction solution (8 mM MOPS pH 7.0, 0.2 mM EDTA, 300 uM RSRSRSRSRSRSRSR, 10 mM Magnesium acetate, 15 uM [gamma-33P-ATP]) and reacted at room temperature for 40 minutes. Then, the reaction was terminated by adding phosphoric acid (0.5%) to the reaction mixture, and 10 ul of the reaction solution was dropped onto a P30 filter. The filter was washed four times in a 0.425% phosphoric acid solution for 4 minutes, then washed once more in methanol, dried, and the PERK activity was measured by scintillation counting. […] The compound was diluted by 1/3 from the highest concentration of 1 uM and treated with a total of 9 concentrations to evaluate the degree of inhibition.

The target in experiment [3] is recombinant human HRI protein (Homo sapiens, UniProt Q9BQI3). The experiment can be described thus: eIF2-alpha kinase heme-regulated inhibitor (HRI) inhibitory capacity, 33P-ATP filter assay. In kind it is biochemical. The conditions noted are these: 45 uM [gamma-33P-ATP], 40 minutes, room temperature. On the procedure:
<Experimental Example 3> Evaluation of eIF2-Alpha Kinase Heme-Regulated Inhibitor (HRI) Inhibitory Capacity
A recombinant human HRI protein was mixed with the compound in a reaction solution (50 mM Tris/HCl pH 7.5, 0.04 mM EDTA, 300 uM RSRSRSRSRSRSRSR, 10 mM Magnesium acetate, 45 uM [gamma-33P-ATP]) and reacted at room temperature for 40 minutes. Then, the reaction was terminated by adding phosphoric acid (0.5%) to the reaction mixture, and […] of the reaction solution was dropped onto a P30 filter. The filter was washed four times in a 0.425% phosphoric acid solution for 4 minutes, then […] washed once more in methanol, dried, and the HRI activity was measured by scintillation counting. […] The compound was diluted by 1/3 from the highest concentration of 1 uM and treated with a total of 9 concentrations to evaluate the degree of inhibition.

Experiment [4] addresses recombinant human PKR protein (Homo sapiens, UniProt P19525). The experiment can be described thus: Protein kinase R (PKR) inhibitory capacity, 33P-ATP filter assay. In kind it is biochemical. The conditions noted are these: 15 uM [gamma-33P-ATP], 40 minutes, room temperature. On the procedure:
<Experimental Example 4> Evaluation of Protein Kinase R (PKR) Inhibitory Capacity
as §7, with “PKR” for “PERK”, “20” for “300”

T1 sequence (Q9P2K8 whole entry): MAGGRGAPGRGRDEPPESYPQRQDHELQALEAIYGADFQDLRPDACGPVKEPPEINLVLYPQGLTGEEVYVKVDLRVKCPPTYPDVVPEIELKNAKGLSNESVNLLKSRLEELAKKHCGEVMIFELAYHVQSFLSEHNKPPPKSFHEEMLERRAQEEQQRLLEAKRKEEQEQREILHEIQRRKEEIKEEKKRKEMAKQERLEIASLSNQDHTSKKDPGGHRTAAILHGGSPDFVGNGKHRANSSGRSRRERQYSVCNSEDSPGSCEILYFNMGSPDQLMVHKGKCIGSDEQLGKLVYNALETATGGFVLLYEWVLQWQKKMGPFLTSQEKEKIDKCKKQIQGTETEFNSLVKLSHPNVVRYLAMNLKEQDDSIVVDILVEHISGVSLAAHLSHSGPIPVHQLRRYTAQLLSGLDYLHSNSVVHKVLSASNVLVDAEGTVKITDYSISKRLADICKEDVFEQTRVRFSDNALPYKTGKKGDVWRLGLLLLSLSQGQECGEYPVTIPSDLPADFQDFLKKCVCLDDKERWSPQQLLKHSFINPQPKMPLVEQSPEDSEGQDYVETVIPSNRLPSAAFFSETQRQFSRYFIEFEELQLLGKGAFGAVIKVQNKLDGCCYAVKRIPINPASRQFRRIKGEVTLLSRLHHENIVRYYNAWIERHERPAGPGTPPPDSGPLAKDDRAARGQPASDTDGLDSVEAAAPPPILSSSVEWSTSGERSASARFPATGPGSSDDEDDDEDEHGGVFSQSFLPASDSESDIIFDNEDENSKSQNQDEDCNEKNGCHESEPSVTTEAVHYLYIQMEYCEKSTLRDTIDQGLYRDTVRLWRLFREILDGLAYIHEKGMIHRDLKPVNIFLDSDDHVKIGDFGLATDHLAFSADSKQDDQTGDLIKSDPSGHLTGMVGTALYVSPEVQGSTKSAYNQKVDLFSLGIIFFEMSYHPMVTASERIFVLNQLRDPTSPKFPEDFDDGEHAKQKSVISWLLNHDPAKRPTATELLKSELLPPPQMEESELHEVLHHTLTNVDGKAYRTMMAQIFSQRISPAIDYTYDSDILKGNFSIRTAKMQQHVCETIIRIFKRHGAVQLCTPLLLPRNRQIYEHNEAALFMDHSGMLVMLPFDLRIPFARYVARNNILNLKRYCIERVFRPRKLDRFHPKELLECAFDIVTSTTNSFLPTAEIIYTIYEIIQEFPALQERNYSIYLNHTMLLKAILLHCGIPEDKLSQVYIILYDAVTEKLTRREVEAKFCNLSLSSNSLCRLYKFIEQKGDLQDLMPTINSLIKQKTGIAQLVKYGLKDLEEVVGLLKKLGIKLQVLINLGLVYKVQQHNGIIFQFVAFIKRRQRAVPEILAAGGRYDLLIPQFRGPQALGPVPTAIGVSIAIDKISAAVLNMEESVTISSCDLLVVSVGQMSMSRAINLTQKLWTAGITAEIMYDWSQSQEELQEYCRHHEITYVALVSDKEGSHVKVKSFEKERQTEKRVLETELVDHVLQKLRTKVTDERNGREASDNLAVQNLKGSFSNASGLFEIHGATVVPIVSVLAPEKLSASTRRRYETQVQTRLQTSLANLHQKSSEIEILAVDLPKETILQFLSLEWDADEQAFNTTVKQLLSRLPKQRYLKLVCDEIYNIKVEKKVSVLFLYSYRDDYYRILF
Chain of recombinant human GCN2 protein (Q9P2K8 whole entry): as above
Chain of recombinant human HRI protein (Q9BQI3 whole entry): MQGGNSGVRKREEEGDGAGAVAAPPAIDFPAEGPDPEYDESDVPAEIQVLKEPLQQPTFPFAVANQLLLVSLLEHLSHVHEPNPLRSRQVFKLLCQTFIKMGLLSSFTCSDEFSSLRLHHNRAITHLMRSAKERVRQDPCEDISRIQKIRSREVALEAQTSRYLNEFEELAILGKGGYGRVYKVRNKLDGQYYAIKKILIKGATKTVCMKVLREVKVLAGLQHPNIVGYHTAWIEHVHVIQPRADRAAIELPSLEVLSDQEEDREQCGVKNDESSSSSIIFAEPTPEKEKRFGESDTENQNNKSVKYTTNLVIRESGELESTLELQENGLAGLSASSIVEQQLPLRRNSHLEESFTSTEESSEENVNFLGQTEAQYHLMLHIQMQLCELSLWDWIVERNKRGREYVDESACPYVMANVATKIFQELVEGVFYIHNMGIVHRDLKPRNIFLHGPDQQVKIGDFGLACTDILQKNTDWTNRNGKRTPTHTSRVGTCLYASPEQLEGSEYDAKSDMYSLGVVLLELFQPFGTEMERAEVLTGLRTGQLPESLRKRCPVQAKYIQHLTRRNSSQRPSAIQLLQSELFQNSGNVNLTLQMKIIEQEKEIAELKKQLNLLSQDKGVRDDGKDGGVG
Chain of recombinant human PKR protein (P19525 whole entry): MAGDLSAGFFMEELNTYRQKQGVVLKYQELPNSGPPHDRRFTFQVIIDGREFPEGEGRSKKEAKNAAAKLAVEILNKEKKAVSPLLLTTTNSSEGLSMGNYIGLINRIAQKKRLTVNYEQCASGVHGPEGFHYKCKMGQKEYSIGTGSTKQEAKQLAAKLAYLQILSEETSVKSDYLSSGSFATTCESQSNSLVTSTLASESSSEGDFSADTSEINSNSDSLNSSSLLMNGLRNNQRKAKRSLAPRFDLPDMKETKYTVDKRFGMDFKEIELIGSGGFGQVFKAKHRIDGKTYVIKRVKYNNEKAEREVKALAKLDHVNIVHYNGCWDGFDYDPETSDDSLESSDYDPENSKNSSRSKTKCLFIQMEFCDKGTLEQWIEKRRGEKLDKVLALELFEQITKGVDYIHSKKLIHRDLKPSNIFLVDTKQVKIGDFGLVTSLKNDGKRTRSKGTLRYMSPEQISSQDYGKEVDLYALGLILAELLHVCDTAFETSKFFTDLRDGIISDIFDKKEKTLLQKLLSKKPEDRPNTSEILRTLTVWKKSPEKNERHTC

Consider `COc1ccc(Br)cc1S(=O)(=O)Nc1ccc(F)c(-n2c(=O)c3cnc(N)nc3n(C)c2=O)c1F` [Example 51, N-(3-(7-amino-1-methyl-2,4-dioxo-1,2-dihydropyrimido[4,5-d]pyrimidin-3(4H)-yl)-2,4-difluorophenyl)-5-bromo-2-methoxybenzenesulfonamide], for which the IC50 in experiment [1] lay in the range of 100 to 300 nM. Further, the “inhibitory effect on ATF4 (FIG. 1)” value in the experiment on ATF4 is recorded as “excellent inhibitory effects”. Besides, on phosphorylated GCN2, the “inhibitory effect on the phosphorylated GCN2” value is listed as “excellent inhibitory effects” and the Phospho-GCN2 inhibition entry is “◯”.

For `COc1ncc(C#N)cc1S(=O)(=O)Nc1ccc(F)c(-n2ccc3nc(N)ncc3c2=O)c1F` [Example 28, N-(3-(2-amino-5-oxopirido[4,3-d]pyrimidin-6(5H)-yl)-2,4-difluorophenyl)-5-cyano-2-methoxypyridine-3-sulfonamide], the IC50 in experiment [2] is less than 100 nM; in experiment [1], less than 100 nM; in experiment [3] it was 100 to 300 nM; in experiment [4] it was more than 1000 nM.

On to `Cn1c(=O)n(-c2c(F)ccc(NS(=O)(=O)c3cc(Cl)cnc3Cl)c2F)c(=O)c2cnc(N)nc21` [Example 57, N-(3-(7-amino-1-methyl-2,4-dioxo-1,4-dihydropyrimido[4,5-d]pyrimidin-3(2H)-yl)-2,4-difluorophenyl)-2,5-dichloropyridine-3-sulfonamide], for which the IC50 in experiment [2] was less than 100 nM; in experiment [1], less than 100 nM; in experiment [3] it was 100 to 300 nM; in experiment [4] it was 300 to 1000 nM.

Regarding `Cn1c(=O)n(-c2c(F)ccc(NS(=O)(=O)c3cccc4ccccc34)c2F)c(=O)c2cnc(N)nc21` [Example 43, N-(3-(7-amino-1-methyl-2,4-dioxo-1,4-dihydropyrimido[4,5-d]pyrimidin-3(2H)-yl)-2,4-difluorophenyl)naphthalene-1-sulfonamide], the half-maximal inhibitory concentration (IC50) in experiment [1] was in the range of 100 to 300 nM. Besides, in the experiment with ATF4, the “inhibitory effect on ATF4 (FIG. 1)” value is recorded as “excellent inhibitory effects”. At phosphorylated GCN2, the “inhibitory effect on the phosphorylated GCN2” value is “excellent inhibitory effects” and the Phospho-GCN2 inhibition entry was “◯”.
